Measurements taken from PubChem BioAssay AID252 (DTP/NCI, 2004).
“And” between values parts separate entries of the source, which are not always exact repeats. Equal values may be shown once. Toxic doses and inconclusive results are not listed. How the source made its calls: active means survival T/C of 150% or more; inactive means T/C below 125% in these data.

Tested on: BDF1 mice, intracerebral L1210 leukemia, survival T/C
Assay: NCI In Vivo Anticancer Drug Screen. Data for tumor model L1210 Leukemia (intracerebral) in B6D2F1 (BDF1) mice
Conditions: higher = longer survival
In short: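 Mice carrying transplanted tumour were dosed with compound; survival was recorded and expressed as treated-group value (T) divided by vehicle-control value (C).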

Measured: T/C

Cc1cccc2c(Nc3ccc(NS(C)(=O)=O)cc3)c3ccccc3nc12
inactive: endpoint: mean survival time, dose: 10.0 mg/kg/injection, schedule: Q01DX009 (ip), vehicle: saline 100 % of control | endpoint: mean survival time, dose: 10.0 mg/kg/injection, schedule: Q01DX009 (sc), vehicle: saline 96 % of control | endpoint: mean survival time, dose: 20.0 mg/kg/injection, schedule: Q01DX009 (ip), vehicle: saline 110 % of control | endpoint: mean survival time, dose: 20.0 mg/kg/injection, schedule: Q01DX009 (sc), vehicle: saline 101 % of control | endpoint: mean survival time, dose: 40.0 mg/kg/injection, schedule: Q01DX009 (ip), vehicle: saline 112 % of control | endpoint: mean survival time, dose: 40.0 mg/kg/injection, schedule: Q01DX009 (sc), vehicle: saline 97 % of control | endpoint: mean survival time, dose: 80.0 mg/kg/injection, schedule: Q01DX009 (ip), vehicle: saline 87 % of control | endpoint: mean survival time, dose: 80.0 mg/kg/injection, schedule: Q01DX009 (sc), vehicle: saline 104 % of control

CCOC(=O)c1ccc(NC(=O)N(C)N=O)cc1
inactive: endpoint: mean survival time, dose: 75.0 mg/kg/injection, schedule: Q01DX001 (ip), vehicle: carboxymethylcellulose (CMC) 94 % of control | endpoint: mean survival time, dose: 150.0 mg/kg/injection, schedule: Q01DX001 (ip), vehicle: carboxymethylcellulose (CMC) 102 % of control | endpoint: mean survival time, dose: 300.0 mg/kg/injection, schedule: Q01DX001 (ip), vehicle: carboxymethylcellulose (CMC) 97 % of control

CN(N=O)C(=O)NCCCCCNC(=O)N(C)N=O
inactive: endpoint: mean survival time, dose: 210.0 mg/kg/injection, schedule: Q01DX001 (ip), vehicle: carboxymethylcellulose (CMC) 113 % of control | endpoint: mean survival time, dose: 420.0 mg/kg/injection, schedule: Q01DX001 (ip), vehicle: carboxymethylcellulose (CMC) 123 % of control

O=c1[nH]c(=O)n(C2CC(O)C(CO)O2)cc1F (stereo unspecified)
active: endpoint: mean survival time, dose: 86.0 mg/kg/injection, schedule: Q01DX015 (ip), vehicle: saline 160 % of control
inactive: endpoint: mean survival time, dose: 239.0 mg/kg/injection, schedule: Q01DX001 (ip), vehicle: saline 109 % of control | endpoint: mean survival time, dose: 364.0 mg/kg/injection, schedule: Q01DX001 (ip), vehicle: saline 104 % of control | endpoint: mean survival time, dose: 543.0 mg/kg/injection, schedule: Q01DX001 (ip), vehicle: saline 117 % of control

COc1cccc2c1C(=O)c1c(O)c3c(c(O)c1C2=O)C[C@@](O)(C(C)=O)C[C@@H]3OC1CC(N)C(O)C(C)O1 (stereo partly specified)
inactive: endpoint: mean survival time, dose: 1.08 mg/kg/injection, schedule: Q04DX003 (ip), vehicle: water 101 % of control | endpoint: mean survival time, dose: 1.8 mg/kg/injection, schedule: Q04DX003 (ip), vehicle: water 101 % of control | endpoint: mean survival time, dose: 3.0 mg/kg/injection, schedule: Q04DX003 (ip), vehicle: water 97 % of control | endpoint: mean survival time, dose: 3.12 mg/kg/injection, schedule: Q01DX001 (ip), vehicle: water 102 % of control | endpoint: mean survival time, dose: 5.0 mg/kg/injection, schedule: Q04DX003 (ip), vehicle: water 102 % of control | endpoint: mean survival time, dose: 6.25 mg/kg/injection, schedule: Q01DX001 (ip), vehicle: water 97 % of control | endpoint: mean survival time, dose: 12.5 mg/kg/injection, schedule: Q01DX001 (ip), vehicle: water 91 % of control | endpoint: mean survival time, dose: 25.0 mg/kg/injection, schedule: Q01DX001 (ip), vehicle: water 96 % of control | endpoint: median survival time, dose: 1.08 mg/kg/injection, schedule: Q04DX003 (ip), vehicle: water 97 % of control | endpoint: median survival time, dose: 1.8 mg/kg/injection, schedule: Q04DX003 (ip), vehicle: water 96 % of control | endpoint: median survival time, dose: 3.0 mg/kg/injection, schedule: Q04DX003 (ip), vehicle: water 96 % of control | endpoint: median survival time, dose: 5.0 mg/kg/injection, schedule: Q04DX003 (ip), vehicle: water 96 % of control | endpoint: median survival time, dose: 8.4 mg/kg/injection, schedule: Q04DX003 (ip), vehicle: water 95 % of control

CCNC(=O)N(CC)N=O
inactive: endpoint: mean survival time, dose: 222.0 mg/kg/injection, schedule: Q01DX001 (ip), vehicle: saline 100 % of control | endpoint: mean survival time, dose: 333.0 mg/kg/injection, schedule: Q01DX001 (ip), vehicle: saline 110 % of control | endpoint: mean survival time, dose: 500.0 mg/kg/injection, schedule: Q01DX001 (ip), vehicle: saline 123 % of control

Nc1ncnc2c1ccn2C1OC(CO)C(O)C1O (stereo unspecified)
inactive: endpoint: mean survival time, dose: 1.2 mg/kg/injection, schedule: Q01DX001 (ip), vehicle: carboxymethylcellulose (CMC) 96 % of control | endpoint: mean survival time, dose: 1.9 mg/kg/injection, schedule: Q01DX001 (ip), vehicle: carboxymethylcellulose (CMC) 97 % of control | endpoint: mean survival time, dose: 2.9 mg/kg/injection, schedule: Q01DX001 (ip), vehicle: carboxymethylcellulose (CMC) 100 % of control

O=NN(CCCl)C(=O)NC1Cc2ccccc2C1
inactive: endpoint: mean survival time, dose: 55.0 mg/kg/injection, schedule: Q01DX001 (ip), vehicle: other 116 % of control | endpoint: mean survival time, dose: 84.0 mg/kg/injection, schedule: Q01DX001 (ip), vehicle: other 123 % of control | endpoint: mean survival time, dose: 188.0 mg/kg/injection, schedule: Q01DX001 (ip), vehicle: other 94 % of control

CN(N=O)C(=O)NC(=O)N(C)N=O
inactive: endpoint: mean survival time, dose: 27.5 mg/kg/injection, schedule: Q01DX001 (ip), vehicle: carboxymethylcellulose (CMC) 107 % of control | endpoint: mean survival time, dose: 54.0 mg/kg/injection, schedule: Q01DX001 (ip), vehicle: carboxymethylcellulose (CMC) 104 % of control

O=CC(NC(=O)N(CCCl)N=O)C(O)C(O)C(O)CO (stereo unspecified)
inactive: endpoint: mean survival time, dose: 4.0 mg/kg/injection, schedule: Q01DX001 (ip), vehicle: carboxymethylcellulose (CMC) 111 % of control | endpoint: mean survival time, dose: 6.0 mg/kg/injection, schedule: Q01DX001 (ip), vehicle: carboxymethylcellulose (CMC) 111 % of control | endpoint: mean survival time, dose: 9.0 mg/kg/injection, schedule: Q01DX001 (ip), vehicle: carboxymethylcellulose (CMC) 112 % of control | endpoint: mean survival time, dose: 9.0 mg/kg/injection, schedule: Q01DX001 (ip), vehicle: saline 110 % of control | endpoint: mean survival time, dose: 13.0 mg/kg/injection, schedule: Q01DX001 (ip), vehicle: carboxymethylcellulose (CMC) 123 % of control | endpoint: mean survival time, dose: 13.0 mg/kg/injection, schedule: Q01DX001 (ip), vehicle: saline 109 % of control | endpoint: mean survival time, dose: 20.0 mg/kg/injection, schedule: Q01DX001 (ip), vehicle: carboxymethylcellulose (CMC) 119 % of control | endpoint: mean survival time, dose: 20.0 mg/kg/injection, schedule: Q01DX001 (ip), vehicle: saline 112 % of control | endpoint: mean survival time, dose: 30.0 mg/kg/injection, schedule: Q01DX001 (ip), vehicle: carboxymethylcellulose (CMC) 119 % of control | endpoint: mean survival time, dose: 30.0 mg/kg/injection, schedule: Q01DX001 (ip), vehicle: saline 117 % of control | endpoint: mean survival time, dose: 45.0 mg/kg/injection, schedule: Q01DX001 (ip), vehicle: carboxymethylcellulose (CMC) 111 % of control | endpoint: mean survival time, dose: 45.0 mg/kg/injection, schedule: Q01DX001 (ip), vehicle: saline 106 % of control

CCOCCN1CCN(CCCN2c3ccccc3Sc3ccc(C(F)(F)F)cc32)CC1
inactive: endpoint: mean survival time, dose: 0.78 mg/kg/injection, schedule: Q01DX009 (ip), vehicle: water 106 % of control | endpoint: mean survival time, dose: 1.56 mg/kg/injection, schedule: Q01DX009 (ip), vehicle: water 103 % of control | endpoint: mean survival time, dose: 25.0 mg/kg/injection, schedule: Q04DX003 (ip), vehicle: water 106 % of control

O=NN(CCCl)C(=O)Nc1ccccc1
inactive: endpoint: mean survival time, dose: 8.0 mg/kg/injection, schedule: Q01DX001 (ip), vehicle: carboxymethylcellulose (CMC) 97 % of control | endpoint: mean survival time, dose: 12.0 mg/kg/injection, schedule: Q01DX001 (ip), vehicle: carboxymethylcellulose (CMC) 101 % of control | endpoint: mean survival time, dose: 18.0 mg/kg/injection, schedule: Q01DX001 (ip), vehicle: carboxymethylcellulose (CMC) 107 % of control and 96 % of control | endpoint: mean survival time, dose: 36.0 mg/kg/injection, schedule: Q01DX001 (ip), vehicle: carboxymethylcellulose (CMC) 95 % of control | endpoint: mean survival time, dose: 72.0 mg/kg/injection, schedule: Q01DX001 (ip), vehicle: carboxymethylcellulose (CMC) 93 % of control

O=C1CN=C(c2ccc[nH]2)c2cc(Cl)ccc2N1
inactive: endpoint: mean survival time, dose: 248.0 mg/kg/injection, schedule: Q01DX009 (sc), vehicle: Klucel (hydroxypropylcellulose) (HPC) 103 % of control | endpoint: mean survival time, dose: 377.0 mg/kg/injection, schedule: Q01DX009 (sc), vehicle: Klucel (hydroxypropylcellulose) (HPC) 108 % of control | endpoint: mean survival time, dose: 571.0 mg/kg/injection, schedule: Q01DX009 (sc), vehicle: Klucel (hydroxypropylcellulose) (HPC) 100 % of control | endpoint: mean survival time, dose: 858.0 mg/kg/injection, schedule: Q01DX009 (sc), vehicle: Klucel (hydroxypropylcellulose) (HPC) 108 % of control | endpoint: mean survival time, dose: 1300.0 mg/kg/injection, schedule: Q01DX009 (sc), vehicle: Klucel (hydroxypropylcellulose) (HPC) 122 % of control | endpoint: median survival time, dose: 1.75 mg/kg/injection, schedule: Q01DX009 (ip), vehicle: other 102 % of control | endpoint: median survival time, dose: 3.15 mg/kg/injection, schedule: Q01DX009 (ip), vehicle: other 102 % of control | endpoint: median survival time, dose: 6.3 mg/kg/injection, schedule: Q01DX009 (ip), vehicle: other 106 % of control | endpoint: median survival time, dose: 12.5 mg/kg/injection, schedule: Q01DX009 (ip), vehicle: other 102 % of control | endpoint: median survival time, dose: 25.0 mg/kg/injection, schedule: Q01DX009 (ip), vehicle: other 110 % of control

O=NN(CCBr)C(=O)NC1CCCCC1
active: endpoint: mean survival time, dose: 345.0 mg/kg/injection, schedule: Q01DX001 (ip), vehicle: carboxymethylcellulose (CMC) 224 % of control
inactive: endpoint: mean survival time, dose: 137.0 mg/kg/injection, schedule: Q01DX001 (ip), vehicle: carboxymethylcellulose (CMC) 108 % of control

O=C1C=C(N2CC2)C(=O)C(N2CC2)=C1N1CC1
inactive: endpoint: mean survival time, dose: 0.01 mg/kg/injection, schedule: Q01DX009 (ip), vehicle: saline 94 % of control | endpoint: mean survival time, dose: 0.02 mg/kg/injection, schedule: Q01DX009 (ip), vehicle: saline 100 % of control | endpoint: mean survival time, dose: 0.05 mg/kg/injection, schedule: Q01DX009 (ip), vehicle: saline 116 % of control
